Test results taken from patent publication US12071414B2, “Apelin receptor agonists and methods of use thereof” (Sanford Burnham Prebys Medical Discovery Institute, priority 2015, dated 2024).
pEC50: −log10 of the molar value.

system: heart; assay: not given; settings: read-out: EC50 of positive inotropic effect; in humans; cited from earlier work

| Molecule | pEC50 |
| --- | --- |
| apelin-16 | 9.90 to 10.40 |

system: isolated rat heart; assay: not given; settings: read-out: EC50 of positive inotropic effect, in rats, infusion; cited from earlier work

| Molecule | pEC50 |
| --- | --- |
| apelin-16 | ~10.48 |

target: T1, human apelin receptor (APJ, AGTRL-one, APLNR) (Homo sapiens, UniProt P35414); assay: cell-based cAMP TR-FRET assay of apelin receptor activation; settings: CHO cells expressing human APJ, forskolin-stimulated cAMP, 0.5 h incubation, 50% of control (apelin-13, 1 nM) response; read-out: Potency Category (EC50)
T1 construct: host or cells: Chinese hamster ovary cells, stably integrated receptor
T1 sequence (P35414 1-380): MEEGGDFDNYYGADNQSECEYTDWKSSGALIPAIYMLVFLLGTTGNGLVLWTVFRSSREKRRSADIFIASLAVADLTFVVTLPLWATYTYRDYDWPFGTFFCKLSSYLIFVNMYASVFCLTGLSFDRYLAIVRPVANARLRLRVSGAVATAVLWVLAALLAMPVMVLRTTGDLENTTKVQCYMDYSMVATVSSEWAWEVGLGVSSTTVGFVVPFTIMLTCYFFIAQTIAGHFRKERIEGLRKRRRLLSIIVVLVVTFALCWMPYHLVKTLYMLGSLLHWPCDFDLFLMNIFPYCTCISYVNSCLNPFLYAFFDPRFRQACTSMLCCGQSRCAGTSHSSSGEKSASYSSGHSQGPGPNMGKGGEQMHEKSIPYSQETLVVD
Summary of the method: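 CHO cells stably expressing human APJ were stimulated to raise cAMP, then incubated 0.5 h with compound (0.0-100 μM, ≤1% DMSO). Lysed cAMP measured by competitive TR-FRET immunoassay; efficacy as % of 1 nM apelin-13 response, potency from four-point logistic fit over ≥10 concentrations.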

| Molecule | pEC50 |
| --- | --- |
| CCS(=O)(=O)c1ccc(C(Oc2ccc(C#N)cc2)C(=O)Nc2cc3ccccc3[nH]2)cc1 (centres unmarked) | < 6.30 |
| CCCc1ccc(OC(C(=O)Nc2nc3cc(OC)c(OC)cc3s2)c2ccc(S(=O)(=O)CC)cc2)cc1 (centres unmarked) | 6.30 to 6.70 |
| CCS(=O)(=O)c1ccc(C(Oc2ccc(C(=O)N(C)C)cc2)C(=O)Nc2nc3cc(OC)c(OC)cc3s2)cc1 (centres unmarked) | > 7.30 |
| CCS(=O)(=O)c1ccc(C(Nc2ccc(C#N)cc2)C(=O)Nc2nc3cc(OC)c(OC)cc3s2)cc1 (centres unmarked) | > 7.30 |
| CCS(=O)(=O)c1ccc(C(Oc2ccc(C#N)cc2)C(=O)Nc2nc3ccc(F)c(OC)c3s2)cc1 (centres unmarked) | < 6.30 |
| CCS(=O)(=O)c1ccc(C(OCc2ccc(C#N)cc2)C(=O)Nc2nc3cc(OC)c(OC)cc3s2)cc1 (centres unmarked) | < 6.30 |
| CCS(=O)(=O)c1ccc(C(Nc2cccc(C)c2)C(=O)Nc2nc3cc(OC)c(OC)cc3s2)cc1 (centres unmarked) | < 6.30 |
| COc1cc2nc(NC(=O)Cc3ccc(S(=O)(=O)CC4CC4)cc3)sc2cc1OC | < 6.30 |
| CCS(=O)(=O)c1ccc(C(Oc2ccc(C#N)cc2)C(=O)Nc2nc3ccc(OCCN4CCOCC4)cc3s2)cc1 (centres unmarked) | < 6.30 |
| CCS(=O)(=O)c1ccc(C(Oc2ccc(N(C)C)cc2)C(=O)Nc2nc3cc(OC)c(OC)cc3s2)cc1 (centres unmarked) | 6.30 to 6.70 |
| COc1ccc(S(=O)(=O)c2cccc(C(Oc3ccc(C#N)cc3)C(=O)Nc3nc4cc(OC)c(OC)cc4s3)c2)cc1 (centres unmarked) | < 6.30 |
| COc1cc2nc(NC(=O)Cc3ccc(S(=O)(=O)C(C)C)cc3)sc2cc1OC | < 6.30 |
| CCS(=O)(=O)c1cccc(C(Oc2ccc(OC)cc2)C(=O)Nc2nc3cc(OC)c(OC)cc3s2)c1 (centres unmarked) | < 6.30 |
| CCS(=O)(=O)c1ccc(C(Oc2ccc(C(F)(F)F)cc2)C(=O)Nc2nc3cc(OC)c(OC)cc3s2)cc1 (centres unmarked) | 6.30 to 6.70 |
| COc1ccc(OC(C(=O)Nc2nc3cc(OC)c(OC)cc3s2)c2ccccc2S(=O)(=O)c2ccc(OC)cc2)cc1 (centres unmarked) | < 6.30 |
| CCS(=O)(=O)c1ccc(C(CCOC)C(=O)Nc2nc3cc(OC)c(OC)cc3s2)cc1 (centres unmarked) | < 6.30 |
| CCS(=O)(=O)c1ccc(C(NCC(C)C)C(=O)Nc2nc3cc(OC)c(OC)cc3s2)cc1 (centres unmarked) | < 6.30 |
| CCS(=O)(=O)c1ccc(C(C(=O)Nc2nc3cc(OC)c(OC)cc3s2)C2CCCC2)cc1 (centres unmarked) | < 6.30 |

| Molecule | pEC50 |
| --- | --- |
| COc1cc2nc(NC(=O)C(Oc3ccc(C#N)cc3)c3cccc(S(=O)(=O)C(C)C)c3)sc2cc1OC (centres unmarked) | 6.30 to 6.70 |
| COC(=O)c1cccc(CC(=O)Nc2nc3cc(OC)c(OC)cc3s2)c1 | < 6.30 |
| COc1cc2nc(NC(=O)C(Oc3ccc(C#N)cc3)c3ccc(C(=O)NCCN4CCOCC4)cc3)oc2cc1OC (centres unmarked) | 6.30 to 6.70 |
| CCS(=O)(=O)c1ccc(C(OCC=C(C)C)C(=O)Nc2nc3cc(OC)c(OC)cc3s2)cc1 (centres unmarked) | < 6.30 |
| CCS(=O)(=O)c1ccc(C(Oc2ccc(C#N)cc2)C(=O)Nc2nc3cc(OC)c(OC)cc3n2C)cc1 (centres unmarked) | < 6.30 |
| CCS(=O)(=O)c1ccc(CC(=O)Nc2nc3cc4c(cc3s2)OCCO4)cc1 | < 6.30 |
| CCS(=O)(=O)c1ccc([C@@H](Oc2ccc(C#N)cc2)C(=O)Nc2nc3cc(OC)c(OC)cc3s2)cc1 | 6.70 to 7.00 |
| COc1cc2nc(NC(=O)C(Oc3ccc(C#N)cc3)c3cccc(S(=O)(=O)C(C)(C)C)c3)sc2cc1OC (centres unmarked) | 7.00 to 7.30 |
| CCS(=O)(=O)c1ccc(C(Oc2ccc(C(=O)OC)cc2)C(=O)Nc2nc3cc(OC)c(OC)cc3s2)cc1 (centres unmarked) | > 7.30 |
| COc1cc2nc(NC(=O)C(Oc3ccc(C#N)cc3)c3ccc(C(=O)N(C)C)cc3)sc2cc1OC (centres unmarked) | > 7.30 |
| CCS(=O)(=O)c1ccc(C(Nc2ccc(OC)cc2)C(=O)Nc2nc3cc(OC)c(OC)cc3s2)cc1 (centres unmarked) | < 6.30 |
| COc1cc2nc(NC(=O)C(Oc3ccc(C#N)cc3)c3ccc(OCCN(C)C)cc3)sc2cc1OC (centres unmarked) | > 7.30 |
| COc1cc2nc(NC(=O)C(Oc3ccc(C(=O)NCCN4CCCCC4)cc3)c3ccc(C#N)cc3)sc2cc1OC (centres unmarked) | > 7.30 |
| CCS(=O)(=O)c1ccc(C(Oc2ccc(C#N)cc2)C(=O)Nc2nc3ccc(OC)c(OC(C)C)c3s2)cc1 (centres unmarked) | > 7.30 |
| CCS(=O)(=O)c1ccc(C(Oc2cccc(C)c2)C(=O)Nc2nc3cc(OC)c(OC)cc3s2)cc1 (centres unmarked) | < 6.30 |
| CCCCS(=O)(=O)c1ccc(C(Oc2ccc(C#N)cc2)C(=O)Nc2nc3cc(OC)c(OC)cc3s2)cc1 (centres unmarked) | > 7.30 |
| CCS(=O)(=O)c1ccc(C(C(=O)Nc2nc3cc(OC)c(OC)cc3s2)N2CCCCC2)cc1 (centres unmarked) | < 6.30 |
| COc1cc2nc(NC(=O)C(Oc3ccc(OCCN4CCOCC4)cc3)c3ccc(C#N)cc3)sc2cc1OC (centres unmarked) | 7.00 to 7.30 |
